Laboratory results: US11180484B2, “Pyrazole derivatives as plasma kallikrein inhibitors” (KALVISTA PHARMACEUTICALS LIMITED, priority 2016, dated 2021)
pIC50: −log10 of the molar value.

Experiments:
Human plasma kallikrein = Human plasma kallikrein (Homo sapiens (Human), UniProt P03952); test: Determination of the IC50 for plasma kallikrein; assay type: biochemical; details: 25° C., substrate H-DPro-Phe-Arg-AFC; read-out: IC50 (human PKal)
Method: (§1) Human plasma kallikrein (Protogen) was incubated at 25° C. with the fluorogenic substrate H-DPro-Phe-Arg-AFC and various concentrations of the test compound. Residual enzyme activity (initial rate of reaction) was determined by measuring the change in […] at 410 nm and the IC50 value for the test compound was determined.

Human Factor XIIa = Human Factor XIIa (Homo sapiens (Human), UniProt P00748); test: Factor XIIa inhibitory activity in vitro; assay type: biochemical; details: 25° C., substrate H-DPro-Phe-Arg-AFC; read-out: IC50 (human FXIIa)
Method: as §1, with “Factor XIIa (Enzyme Research Laboratories)” for “plasma kallikrein (Protogen)”

[1] = Intrinsic clearance in rat liver microsomes; assay type: in vitro ADME; details: rat liver microsomes 0.5 mg/mL, 5 μM test compound, 37° C.; read-out: rat liver microsome (Clint μL/min/mg protein)
Method: (§2) Rat or human liver microsomes (0.5 mg/mL; Corning) were incubated with 5 μM test compound at 37° C. on a shaking platform (150 rpm). Samples were taken at 0, 6, 12, 18, 24 and 60 min and test compound concentrations were determined by LCMS against a calibration curve.

Human KLK1 = Human KLK1 (Homo sapiens (Human), UniProt P06870); test: Determination of the IC50 for KLK1; assay type: biochemical; details: 25° C., substrate H-DVal-Leu-Arg-AFC
Method: as §1, with “KLK1 (Callbiochem)” for “plasma kallikrein (Protogen)”, “H-DVal-Leu-Arg-AFC” for “H-DPro-Phe-Arg-AFC”

[2] = In vitro permeability, Caco-2 model for oral absorption; assay type: in vitro ADME; details: human, apical to basolateral, 50 μM test compound, 37° C.
Method: In vitro permeability was determined using the Caco-2 model for oral absorption. The methodology was adapted from standard published methods (Wang Z, Hop C. E., Leung K. H. and Pang J. (2000) J Mass Spectrom 35(1); 71-76). The Caco-2 monolayers were established in a Biocoat™ HTS fibrillar collagen 24 well multiwell insert system (1.0 μm, PET membrane, Corning 354803) in which 200,000 cells were seeded into each insert and maintained over 3 days before being utilised in the permeability assay. For the assay, 50 μM test compound is added to the apical side of the inserts and incubated for 1 hour at 37° C. on a shaking platform (120 rpm). Apical to basolateral transport was determined by measuring the test article in both compartments by LCMS following the 1 hour incubation. The integrity of the Caco-2 monolayers was confirmed by two methods, (i) comparison of pre- and post-experiment transepithelial electrical resistance (TEER) and, (ii) assessment of Lucifer Yellow flux.

[3] = Intrinsic clearance in human liver microsomes; assay type: in vitro ADME; details: human liver microsomes 0.5 mg/mL, 5 μM test compound, 37° C.; read-out: Human liver microsome (Clint μL/min/mg protein)
Method: as §2

Human FXIa = Human FXIa (Homo sapiens (Human), UniProt P03951); test: Determination of the % inhibition / IC50 for FXIa; assay type: biochemical; details: for pIC50: 25° C., substrate Z-Gly-Pro-Arg-AFC
Method: FXIa inhibitory activity in vitro was determined using standard published methods (see e.g. Johansen et al., Int. J. Tiss. Reac. 1986, 8, 185; Shori et al., Biochem. Pharmacol., 1992, 43, 1209; Sturzebecher et al., Biol. Chem. Hoppe-Seyler, 1992, 373, 1025). […]

Human Factor XIIa, sequence (P00748 373-615): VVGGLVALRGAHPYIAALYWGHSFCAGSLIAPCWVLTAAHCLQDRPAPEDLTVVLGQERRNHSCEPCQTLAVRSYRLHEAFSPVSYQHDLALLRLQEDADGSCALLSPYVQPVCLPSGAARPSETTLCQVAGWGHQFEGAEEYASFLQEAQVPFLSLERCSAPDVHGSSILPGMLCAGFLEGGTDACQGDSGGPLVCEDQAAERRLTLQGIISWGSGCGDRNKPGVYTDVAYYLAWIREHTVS
Human plasma kallikrein, sequence (P03952 391-638): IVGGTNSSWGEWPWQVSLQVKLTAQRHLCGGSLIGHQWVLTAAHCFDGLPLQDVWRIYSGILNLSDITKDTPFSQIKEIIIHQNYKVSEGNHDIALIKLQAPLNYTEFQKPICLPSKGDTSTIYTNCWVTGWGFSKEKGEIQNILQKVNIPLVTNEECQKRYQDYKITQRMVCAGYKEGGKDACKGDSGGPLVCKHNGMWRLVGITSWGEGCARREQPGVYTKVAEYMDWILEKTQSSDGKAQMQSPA
Human plasma kallikrein, sequence (P03952 20-390): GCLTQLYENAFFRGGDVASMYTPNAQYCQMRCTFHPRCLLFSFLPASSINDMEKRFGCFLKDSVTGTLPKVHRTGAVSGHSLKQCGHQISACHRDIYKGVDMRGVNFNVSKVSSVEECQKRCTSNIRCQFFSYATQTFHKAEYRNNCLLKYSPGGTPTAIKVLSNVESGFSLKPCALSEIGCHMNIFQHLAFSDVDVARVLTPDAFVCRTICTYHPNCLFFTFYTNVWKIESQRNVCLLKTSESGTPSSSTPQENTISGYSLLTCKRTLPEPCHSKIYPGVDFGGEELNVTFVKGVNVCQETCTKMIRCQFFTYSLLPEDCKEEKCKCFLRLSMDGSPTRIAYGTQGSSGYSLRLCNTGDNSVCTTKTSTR
Human KLK1, sequence (P06870 25-262): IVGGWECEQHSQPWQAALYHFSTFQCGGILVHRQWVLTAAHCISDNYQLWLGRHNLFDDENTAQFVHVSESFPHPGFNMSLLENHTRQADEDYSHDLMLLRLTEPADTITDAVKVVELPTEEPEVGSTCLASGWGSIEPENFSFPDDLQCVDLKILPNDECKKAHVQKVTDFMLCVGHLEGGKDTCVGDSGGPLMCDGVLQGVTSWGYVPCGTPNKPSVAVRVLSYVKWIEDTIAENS
Human FXIa, sequence (P03951 388-625): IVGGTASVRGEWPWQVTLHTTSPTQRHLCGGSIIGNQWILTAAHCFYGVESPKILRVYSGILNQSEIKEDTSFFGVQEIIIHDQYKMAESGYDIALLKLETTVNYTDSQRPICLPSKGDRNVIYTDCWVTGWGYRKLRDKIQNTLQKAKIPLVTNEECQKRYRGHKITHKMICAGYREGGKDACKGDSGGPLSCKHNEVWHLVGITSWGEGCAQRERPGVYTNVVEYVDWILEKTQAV
Human FXIa, sequence (P03951 19-387): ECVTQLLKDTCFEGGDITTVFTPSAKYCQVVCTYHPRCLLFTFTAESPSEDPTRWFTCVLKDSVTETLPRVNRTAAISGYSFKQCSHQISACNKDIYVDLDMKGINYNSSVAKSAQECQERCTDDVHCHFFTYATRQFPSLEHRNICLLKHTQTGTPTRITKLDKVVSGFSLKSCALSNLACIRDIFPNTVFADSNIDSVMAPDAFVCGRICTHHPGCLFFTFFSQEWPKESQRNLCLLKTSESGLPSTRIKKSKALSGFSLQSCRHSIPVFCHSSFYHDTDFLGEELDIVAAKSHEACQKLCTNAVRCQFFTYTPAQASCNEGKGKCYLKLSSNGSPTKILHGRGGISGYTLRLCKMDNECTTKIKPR

Compound | pIC50 (Human plasma kallikrein) | pIC50 (Human Factor XIIa) | microsomal CLint at 5 μM [1] [µL/min/mg] | pIC50 (Human KLK1) | Papp at 1 h, 50 μM [2] [×10⁻⁶ cm/s] | microsomal CLint at 5 μM [3] [µL/min/mg] | pIC50 (Human FXIa) | inhibition at 40 µM (Human FXIa; 40 μM test compound, read-out: % Inhibition @ 40 μM (human FXIa)) [%]
COCc1nn(Cc2ccc(Cn3cc(C)cn3)cc2)cc1C(=O)NCc1nccc(OC)c1F [Example 1, N-[(3-fluoro-4-methoxypyridin-2-yl)methyl]-3-(methoxymethyl)-1-({4-[(4-methylpyrazol-1-yl)methyl]phenyl}methyl)pyrazole-4-carboxamide] | 7.58 | < 4.40 | 52 | < 4.40 | 28 | 33 | < 4.40 | –
COCc1nn(Cc2ccc(Cn3ccccc3=O)cc2)cc1C(=O)NCc1cc(OC)n(C)n1 [Example 31, N-[(5-methoxy-1-methylpyrazol-3-yl)methyl]-3-(methoxymethyl)-1-({4-[(2-oxopyridin-1-yl)methyl]phenyl}methyl)pyrazole-4-carboxamide] | 6.34 | < 4.40 | – | < 4.40 | – | – | < 4.40 | –
COCc1nn(Cc2ccc(Cn3ccccc3=O)cc2)cc1C(=O)NCc1cccc(OC)c1C#N [Example 38, N-[(2-cyano-3-methoxyphenyl)methyl]-3-(methoxymethyl)-1-({4-[(2-oxopyridin-1-yl)methyl]phenyl}methyl)pyrazole-4-carboxamide] | 6.52 | < 5.40 | – | < 5.40 | – | – | < 4.40 | –
COCc1nn(Cc2ccc(Cn3ccccc3=O)cc2)cc1C(=O)NCc1cc(OC)ccc1C [Example 41, N-[(5-methoxy-2-methylphenyl)methyl]-3-(methoxymethyl)-1-({4-[(2-oxopyridin-1-yl)methyl]phenyl}methyl)pyrazole-4-carboxamide] | 6.83 | < 5.40 | – | < 5.40 | – | – | < 4.40 | –
COCc1nn(Cc2ccc(Cn3ccccc3=O)cc2)cc1C(=O)NCc1c(C(N)=O)ccc(OC)c1F [Example 42, N-[(6-carbamoyl-2-fluoro-3-methoxyphenyl)methyl]-3-(methoxymethyl)-1-({4-[(2-oxopyridin-1-yl)methyl]phenyl}methyl)pyrazole-4-carboxamide] | 8.44 | < 5.40 | 11 | < 5.40 | 4 | 8 | < 4.40 | –
COCc1nn(Cc2ccc(CN3CCCCC3=O)cc2)cc1C(=O)NCc1c(C#N)ccc(OC)c1F [Example 57, N-[(6-cyano-2-fluoro-3-methoxyphenyl)methyl]-3-(methoxymethyl)-1-({4-[(2-oxopiperidin-1-yl)methyl]phenyl}methyl)pyrazole-4-carboxamide] | 7.55 | < 4.40 | – | < 4.40 | – | – | < 4.40 | –
COCc1nn(Cc2cnc(N3CCCC3)nc2)cc1C(=O)NCc1c(C#N)ccc(OC)c1F [Example 58, N-[(6-cyano-2-fluoro-3-methoxyphenyl)methyl]-3-(methoxymethyl)-1-{[2-(pyrrolidin-1-yl)pyrimidin-5-yl]methyl}pyrazole-4-carboxamide] | 7.24 | < 4.40 | – | < 4.40 | 26 | – | 5.07 | –

The remaining compounds from weak to strong by pIC50 (Human plasma kallikrein), led by results:

pIC50 (Human plasma kallikrein) | pIC50 (Human Factor XIIa) | microsomal CLint at 5 μM [1] [µL/min/mg] | pIC50 (Human KLK1) | Papp at 1 h, 50 μM [2] [×10⁻⁶ cm/s] | microsomal CLint at 5 μM [3] [µL/min/mg] | pIC50 (Human FXIa) | inhibition at 40 µM (Human FXIa; 40 μM test compound, read-out: % Inhibition @ 40 μM (human FXIa)) [%] | Compound
7.64 | < 5.40 | – | < 5.40 | 4 | – | < 4.40 | – | COCc1nn(Cc2ccc(Cn3ccccc3=O)cc2)cc1C(=O)NCc1c(Cl)cccc1-n1cnnn1 [Example 73, N-{[2-chloro-6-(1,2,3,4-tetrazol-1-yl)phenyl]methyl}-3-(methoxymethyl)-1-({4-[(2-oxopyridin-1-yl)methyl]phenyl}methyl)pyrazole-4-carboxamide]
7.67 | < 5.40 | 25 | < 5.40 | 3 | 30 | < 4.40 | – | COCc1nn(Cc2ccc(Cn3ccccc3=O)cn2)cc1C(=O)NCc1c(C#N)ccc(OC)c1F [Example 51, N-[(6-cyano-2-fluoro-3-methoxyphenyl)methyl]-3-(methoxymethyl)-1-({5-[(2-oxopyridin-1-yl)methyl]pyridin-2-yl}methyl)pyrazole-4-carboxamide]
7.74 | < 4.40 | 8 | < 4.40 | 10 | 22 | < 4.40 | – | COc1ccnc(CNC(=O)c2cn(Cc3ccc(Cn4ccccc4=O)cc3)nc2N(C)C)c1F [Example 7, 3-(dimethylamino)-N-[(3-fluoro-4-methoxypyridin-2-yl)methyl]-1-({4-[(2-oxopyridin-1-yl)methyl]phenyl}methyl)pyrazole-4-carboxamide]
7.80 | < 5.40 | 36 | < 5.40 | 6 | 18 | < 4.40 | – | COCc1nn(Cc2ccc(Cn3ccccc3=O)cc2)cc1C(=O)NCc1cc(F)ccc1-n1cnnn1 [Example 49, N-{[5-fluoro-2-(1,2,3,4-tetrazol-1-yl)phenyl]methyl}-3-(methoxymethyl)-1-({4-[(2-oxopyridin-1-yl)methyl]phenyl}methyl)pyrazole-4-carboxamide]
8.06 | < 4.40 | 101 | < 4.10 | 17 | 162 | < 4.40 | 32 | COc1ccc(C#N)c(CNC(=O)c2cn(Cc3ccc(Cn4ccccc4=O)cc3)nc2N(C)C)c1F [Example 44, N-[(6-cyano-2-fluoro-3-methoxyphenyl)methyl]-3-(dimethylamino)-1-({4-[(2-oxopyridin-1-yl)methyl]phenyl}methyl)pyrazole-4-carboxamide]
8.19 | < 5.40 | 8 | < 5.40 | 5 | 16 | < 4.40 | – | COCc1nn(Cc2ccc(Cn3ccccc3=O)nc2)cc1C(=O)NCc1c(C#N)ccc(OC)c1F [Example 52, N-[(6-cyano-2-fluoro-3-methoxyphenyl)methyl]-3-(methoxymethyl)-1-({6-[(2-oxopyridin-1-yl)methyl]pyridin-3-yl}methyl)pyrazole-4-carboxamide]
8.70 | < 4.40 | – | < 4.40 | 3 | – | 7.12 | – | COc1ccc(-n2cnnn2)c(CNC(=O)c2cnn(Cc3cnc(N4CCCC4)nc3)c2)c1F [Reference Example K, reference compound]
9.10 | < 4.40 | – | < 4.40 | 4 | – | 6.79 | – | COCc1nn(Cc2ccc(N3CCC(F)(F)C3)nc2)cc1C(=O)NCc1c(-n2cnnn2)ccc(OC)c1F [Example 87, 1-{[6-(3,3-difluoropyrrolidin-1-yl)pyridin-3-yl]methyl}-N-{[2-fluoro-3-methoxy-6-(1,2,3,4-tetrazol-1-yl)phenyl]methyl}-3-(methoxymethyl)pyrazole-4-carboxamide]
9.52 | < 5.40 | 17 | < 5.40 | 1 | 17 | 5.34 | – | Nc1nn(Cc2ccc(Cn3ccccc3=O)cc2)cc1C(=O)NCc1cc(Cl)ccc1-n1cnnn1 [Example 71, 3-amino-N-{[5-chloro-2-(1,2,3,4-tetrazol-1-yl)phenyl]methyl}-1-({4-[(2-oxopyridin-1-yl)methyl]phenyl}methyl)pyrazole-4-carboxamide]
